Tested on: MV-4-11 cells
Assay: Gene expression microarray analysis (Affymetrix PrimeView) and GSEA
Type: cell-based, human
Parameters: RFU PODN (11730768_x_at) / Fold change /veh PODN (11730768_x_at) / RFU LINC00158 (11744669_a_at) / Fold change /veh LINC00158 (11744669_a_at) / RFU DUSP10 (11751237_a_at) / Fold change /veh DUSP10 (11751237_a_at) / RFU ID3 (11757404_x_at) / Fold change /veh ID3 (11757404_x_at) / RFU PLEKHG5 (11737974_s_at) / Fold change /veh PLEKHG5 (11737974_s_at) / RFU LRRC4B (11730491_at) / Fold change /veh LRRC4B (11730491_at) / RFU GIMAP4 (11747438_a_at) / Fold change /veh GIMAP4 (11747438_a_at) / RFU KRT8 (11758183_x_at) / Fold change /veh KRT8 (11758183_x_at) / RFU CNN1 (11734310_a_at) / Fold change /veh CNN1 (11734310_a_at) / RFU VPS37D (11726825_at) / Fold change /veh VPS37D (11726825_at) / RFU C10orf10 (11716522_x_at) / Fold change /veh C10orf10 (11716522_x_at) / RFU KIR2DL2 /// KIR2DL4 /// KIR2DL5A /// KIR2DL5B /// KIR2DS1 /// KIR2DS2 /// KIR2DS3 /// KIR2DS4 /// KIR3DL3 /// KIR3DL3 /// KIR3DS1 (11738374_at) / Fold change /veh KIR2DL2 /// KIR2DL4 /// KIR2DL5A /// KIR2DL5B /// KIR2DS1 /// KIR2DS2 /// KIR2DS3 /// KIR2DS4 /// KIR3DL3 /// KIR3DL3 /// KIR3DS1 (11738374_at) / RFU C1QL1 (11718748_at) / Fold change /veh C1QL1 (11718748_at) / RFU TMPRSS4 (11747572_a_at) / Fold change /veh TMPRSS4 (11747572_a_at) / RFU HAMP (11756126_x_at) / Fold change /veh HAMP (11756126_x_at) / RFU RNFT2 (11725882_a_at) / Fold change /veh RNFT2 (11725882_a_at) / RFU NR4A2 (11747474_a_at) / Fold change /veh NR4A2 (11747474_a_at) / RFU ABCC12 (11746883_a_at) / Fold change /veh ABCC12 (11746883_a_at) / RFU TMEM136 (11760407_x_at) / Fold change /veh TMEM136 (11760407_x_at) / RFU CLDN22 /// WWC2 (11732394_at) / Fold change /veh CLDN22 /// WWC2 (11732394_at) / RFU HLA-DPB1 (11760878_x_at) / Fold change /veh HLA-DPB1 (11760878_x_at) / RFU SPINT1 (11716480_a_at) / Fold change /veh SPINT1 (11716480_a_at) / RFU GAP43 (11754022_s_at) / Fold change /veh GAP43 (11754022_s_at) / RFU A4GNT (11735810_at) / Fold change /veh A4GNT (11735810_at) / RFU PRB3 (11715151_x_at) / Fold change /veh PRB3 (11715151_x_at) / RFU TUBB4B (11761932_at) / Fold change /veh TUBB4B (11761932_at) / RFU CAPN14 (11732068_a_at) / Fold change /veh CAPN14 (11732068_a_at) / RFU TMCC2 (11721928_a_at) / Fold change /veh TMCC2 (11721928_a_at) / RFU IRGQ (11745062_a_at) / Fold change /veh IRGQ (11745062_a_at) / RFU FAM174B (11720279_a_at) / Fold change /veh FAM174B (11720279_a_at) / RFU TMPRSS4 (11748680_a_at) / Fold change /veh TMPRSS4 (11748680_a_at) / RFU FAM212B (11763350_a_at) / Fold change /veh FAM212B (11763350_a_at) / RFU PLEKHG5 (11743358_a_at) / Fold change /veh PLEKHG5 (11743358_a_at) / RFU ZSCAN30 (11745921_a_at) / Fold change /veh ZSCAN30 (11745921_a_at) / RFU CMKLR1 (11741424_a_at) / Fold change /veh CMKLR1 (11741424_a_at) / RFU LOC101060620 /// MAPK8IP1 (11723275_at) / Fold change /veh LOC101060620 /// MAPK8IP1 (11723275_at) / RFU SPTSSB (11747773_x_at) / Fold change /veh SPTSSB (11747773_x_at) / RFU PRSS12 (11739890_at) / Fold change /veh PRSS12 (11739890_at) / RFU BIN1 (11741810_x_at) / Fold change /veh BIN1 (11741810_x_at) / RFU WNT11 (11732464_a_at) / Fold change /veh WNT11 (11732464_a_at) / RFU C10orf10 (11716521_a_at) / Fold change /veh C10orf10 (11716521_a_at) / RFU C5orf56 (11738089_at) / Fold change /veh C5orf56 (11738089_at) / RFU CYB561 (11721691_x_at) / Fold change /veh CYB561 (11721691_x_at) / RFU ANKRD19P (11752326_a_at) / Fold change /veh ANKRD19P (11752326_a_at) / RFU OR2T12 /// OR2T33 /// OR2T8 (11738714_s_at) / Fold change /veh OR2T12 /// OR2T33 /// OR2T8 (11738714_s_at) / RFU VCAN (11748164_a_at) / Fold change /veh VCAN (11748164_a_at) / RFU JSRP1 (11732532_at) / Fold change /veh JSRP1 (11732532_at) / RFU KRTAP10-11 (11738290_x_at) / Fold change /veh KRTAP10-11 (11738290_x_at) / RFU MYO3A (11730013_a_at) / Fold change /veh MYO3A (11730013_a_at) / RFU EBF3 (11725865_a_at) / Fold change /veh EBF3 (11725865_a_at) / RFU CAMK2N1 (11719241_x_at) / Fold change /veh CAMK2N1 (11719241_x_at) / RFU C5orf56 (11738088_a_at) / Fold change /veh C5orf56 (11738088_a_at) / RFU OLFML3 (11715873_a_at) / Fold change /veh OLFML3 (11715873_a_at) / RFU LOC100653217 /// NTM (11731650_a_at) / Fold change /veh LOC100653217 /// NTM (11731650_a_at) / RFU MAPK11 (11762145_a_at) / Fold change /veh MAPK11 (11762145_a_at) / RFU FIZ1 (11724087_x_at) / Fold change /veh FIZ1 (11724087_x_at) / RFU OASL (11726364_x_at) / Fold change /veh OASL (11726364_x_at) / RFU SOX15 (11748057_x_at) / Fold change /veh SOX15 (11748057_x_at) / RFU CD79A (11719716_a_at) / Fold change /veh CD79A (11719716_a_at) / RFU HIST1H1D (11736915_at) / Fold change /veh HIST1H1D (11736915_at) / RFU CASKIN2 (11723855_a_at) / Fold change /veh CASKIN2 (11723855_a_at) / RFU LOC730098 (11760151_x_at) / Fold change /veh LOC730098 (11760151_x_at) / RFU OR4N2 (11742367_at) / Fold change /veh OR4N2 (11742367_at) / RFU PRRT2 (11749266_a_at) / Fold change /veh PRRT2 (11749266_a_at) / RFU SNX32 (11753110_a_at) / Fold change /veh SNX32 (11753110_a_at) / RFU CDHR5 (11726645_a_at) / Fold change /veh CDHR5 (11726645_a_at) / RFU RCAN1 (11760418_a_at) / Fold change /veh RCAN1 (11760418_a_at) / RFU FAM167A (11723789_a_at) / Fold change /veh FAM167A (11723789_a_at) / RFU FAM26E (11764081_at) / Fold change /veh FAM26E (11764081_at) / RFU ISYNA1 (11749810_s_at) / Fold change /veh ISYNA1 (11749810_s_at) / RFU ACY1 (11761880_at) / Fold change /veh ACY1 (11761880_at) / RFU 11764098_at / Fold change /veh 11764098_at / RFU SAMD14 (11745864_x_at) / Fold change /veh SAMD14 (11745864_x_at) / RFU NPB (11741838_a_at) / Fold change /veh NPB (11741838_a_at) / RFU TMPRSS6 (11731388_a_at) / Fold change /veh TMPRSS6 (11731388_a_at) / RFU KRTAP10-2 (11738614_at) / Fold change /veh KRTAP10-2 (11738614_at) / RFU ARHGAP8 /// PRR5-ARHGAP8 (11727945_x_at) / Fold change /veh ARHGAP8 /// PRR5-ARHGAP8 (11727945_x_at) / RFU KRTAP5-7 /// NADSYN1 (11734609_at) / Fold change /veh KRTAP5-7 /// NADSYN1 (11734609_at) / RFU RASL12 (11751679_a_at) / Fold change /veh RASL12 (11751679_a_at) / RFU CDKN2B (11736163_a_at) / Fold change /veh CDKN2B (11736163_a_at) / RFU PRF1 (11729649_at) / Fold change /veh PRF1 (11729649_at) / RFU, ZNF638 /// ZNF638-IT1 / Fold change vs veh, ZNF638 /// ZNF638-IT1 / RFU, PANK3 / Fold change vs veh, PANK3 / RFU, SH3YL1 / Fold change vs veh, SH3YL1 / RFU, ZEB2 / Fold change vs veh, ZEB2 / RFU, NRIP1 / Fold change vs veh, NRIP1 / RFU, PTTG1IP / Fold change vs veh, PTTG1IP / RFU, CAPN2 / Fold change vs veh, CAPN2 / RFU, MED14 / Fold change vs veh, MED14 / RFU, SNORA58 / Fold change vs veh, SNORA58 / RFU, C1orf63 / Fold change vs veh, C1orf63 / RFU, LRRFIP1 / Fold change vs veh, LRRFIP1 / RFU, NDUFAF7 / Fold change vs veh, NDUFAF7 / RFU, SLC12A2 / Fold change vs veh, SLC12A2 / RFU, IBTK / Fold change vs veh, IBTK / RFU, ESF1 / Fold change vs veh, ESF1 / Fold change vs veh, TMEM50B / RFU, TAOK1 / Fold change vs veh, TAOK1 / RFU, ACBD3 / Fold change vs veh, ACBD3 / RFU, TMA16 / Fold change vs veh, TMA16 / RFU, RWDD3 / Fold change vs veh, RWDD3 / RFU, BCAT1 / Fold change vs veh, BCAT1 / RFU, EDEM3 / Fold change vs veh, EDEM3 / RFU, TMEM33 / Fold change vs veh, TMEM33 / RFU, WDR75 / Fold change vs veh, WDR75 / RFU, AHCTF1 / Fold change vs veh, AHCTF1 / RFU, TFRC / Fold change vs veh, TFRC / RFU, ZDHHC17 / Fold change vs veh, ZDHHC17 / RFU, NOM1 / Fold change vs veh, NOM1 / RFU, ARL8B / Fold change vs veh, ARL8B / RFU, ZBTB11 / Fold change vs veh, ZBTB11 / RFU, TAMM41 / Fold change vs veh, TAMM41 / RFU, KIAA1704 /// LOC100996395 / Fold change vs veh, KIAA1704 /// LOC100996395 / RFU, ING1 / Fold change vs veh, ING1 / RFU, TRMT61B / Fold change vs veh, TRMT61B / RFU, FUBP3 / Fold change vs veh, FUBP3 / RFU, TP53 / Fold change vs veh, TP53 / RFU, TNKS2 / Fold change vs veh, TNKS2 / RFU, ZFP14 / Fold change vs veh, ZFP14 / RFU, ACTR2 / Fold change vs veh, ACTR2 / RFU, PPP3R1 / Fold change vs veh, PPP3R1 / RFU, PIK3R1 / Fold change vs veh, PIK3R1 / RFU, HNRNPA1 / Fold change vs veh, HNRNPA1 / RFU, RNF170 / Fold change vs veh, RNF170 / RFU, ZNF28 / Fold change vs veh, ZNF28 / RFU, RNGTT / Fold change vs veh, RNGTT / RFU, OGT / Fold change vs veh, OGT / RFU, BRD1 / Fold change vs veh, BRD1 / RFU, MARS / Fold change vs veh, MARS / RFU, ZNF655 / Fold change vs veh, ZNF655 / RFU, FAHD1 / Fold change vs veh, FAHD1 / RFU, BDP1 / Fold change vs veh, BDP1 / RFU, LRRCC1 / Fold change vs veh, LRRCC1 / RFU, ARID1A / Fold change vs veh, ARID1A / RFU, ZNF146 / Fold change vs veh, ZNF146 / RFU, ZNF330 / Fold change vs veh, ZNF330 / RFU, GPN3 / Fold change vs veh, GPN3 / RFU, C9orf123 / Fold change vs veh, C9orf123 / RFU, N4BP2L2 / Fold change vs veh, N4BP2L2 / RFU, ARFIP1 / Fold change vs veh, ARFIP1 / RFU, FAM179B / Fold change vs veh, FAM179B / RFU, BCL10 / Fold change vs veh, BCL10 / RFU, UHRF1BP1L / Fold change vs veh, UHRF1BP1L / RFU, BET1 / Fold change vs veh, BET1 / RFU, CNOT2 / Fold change vs veh, CNOT2 / RFU, ZNF268 / Fold change vs veh, ZNF268 / Fold change vs veh, ZNF507 / RFU, DGCR2 / Fold change vs veh, DGCR2 / RFU, WDSUB1 / Fold change vs veh, WDSUB1 / Fold change vs veh, HSP90B1 /// MIR3652 / RFU, ADSS / Fold change vs veh, ADSS / RFU, GK / Fold change vs veh, GK / RFU, ZNF148 / Fold change vs veh, ZNF148 / RFU, TAF9 / Fold change vs veh, TAF9 / RFU, SLC1A5 / Fold change vs veh, SLC1A5 / RFU, SLMO2 / Fold change vs veh, SLMO2 / RFU, ABCC4 / Fold change vs veh, ABCC4 / RFU, LOC101060439 /// RAP1B / Fold change vs veh, LOC101060439 /// RAP1B / RFU, RFX7 / Fold change vs veh, RFX7 / RFU, GTPBP10 / Fold change vs veh, GTPBP10 / RFU, CNEP1R1 / Fold change vs veh, CNEP1R1 / RFU, BIVM-ERCC5 /// ERCC5 / Fold change vs veh, BIVM-ERCC5 /// ERCC5 / RFU, ILF3 / Fold change vs veh, ILF3 / RFU 11762660_at / Fold change /veh 11762660_at / RFU VCAN (11757783_s_at) / Fold change /veh VCAN (11757783_s_at) / RFU DDX43 (11728927_at) / Fold change /veh DDX43 (11728927_at) / RFU KRT8 (11758188_x_at) / Fold change /veh KRT8 (11758188_x_at) / RFU NKD1 (11759106_at) / Fold change /veh NKD1 (11759106_at) / RFU SRD5A1 (11742802_a_at) / Fold change /veh SRD5A1 (11742802_a_at) / RFU TPSAB1 /// TPSB2 (11721975_s_at) / Fold change /veh TPSAB1 /// TPSB2 (11721975_s_at) / RFU GSTM3 (11746129_a_at) / Fold change /veh GSTM3 (11746129_a_at) / RFU IL23R (11737362_x_at) / Fold change /veh IL23R (11737362_x_at) / RFU TMEM51 (11727254_a_at) / Fold change /veh TMEM51 (11727254_a_at) / RFU PIWIL2 (11732686_x_at) / Fold change /veh PIWIL2 (11732686_x_at) / RFU ORM1 (11744905_x_at) / Fold change /veh ORM1 (11744905_x_at) / RFU CCDC152 (11743942_at) / Fold change /veh CCDC152 (11743942_at) / RFU ECM1 (11717891_a_at) / Fold change /veh ECM1 (11717891_a_at) / RFU IL23R (11748794_a_at) / Fold change /veh IL23R (11748794_a_at) / RFU TNFAIP8L3 (11732012_x_at) / Fold change /veh TNFAIP8L3 (11732012_x_at) / RFU MBOAT4 (11741988_at) / Fold change /veh MBOAT4 (11741988_at) / RFU 11764193_at / Fold change /veh 11764193_at / RFU TMEM53 (11763286_at) / Fold change /veh TMEM53 (11763286_at) / RFU MAGEB2 (11727129_at) / Fold change /veh MAGEB2 (11727129_at) / RFU TMEM200A (11744735_a_at) / Fold change /veh TMEM200A (11744735_a_at) / RFU CCDC152 (11751479_a_at) / Fold change /veh CCDC152 (11751479_a_at) / RFU FAM211A (11726209_a_at) / Fold change /veh FAM211A (11726209_a_at) / RFU RGS16 (11746705_a_at) / Fold change /veh RGS16 (11746705_a_at) / RFU VCAN (11755009_s_at) / Fold change /veh VCAN (11755009_s_at) / RFU RHOB (11743442_s_at) / Fold change /veh RHOB (11743442_s_at) / RFU RGS16 (11720943_a_at) / Fold change /veh RGS16 (11720943_a_at) / RFU RGS16 (11720944_at) / Fold change /veh RGS16 (11720944_at) / RFU, VPS4B / Fold change vs veh, VPS4B / RFU, CREB1 / Fold change vs veh, CREB1 / RFU, DNAJC13 / Fold change vs veh, DNAJC13 / RFU, GNAQ / Fold change vs veh, GNAQ / RFU, CDK5R1 / Fold change vs veh, CDK5R1 / RFU, ZRANB3 / Fold change vs veh, ZRANB3 / RFU, CUL4A / Fold change vs veh, CUL4A / RFU, CCNY / Fold change vs veh, CCNY / RFU, UFL1 / Fold change vs veh, UFL1 / RFU, COG3 / Fold change vs veh, COG3 / RFU, DIAPH2 / Fold change vs veh, DIAPH2 / RFU, SKA2 / Fold change vs veh, SKA2 / RFU, AFF3 / Fold change vs veh, AFF3 / RFU, LMF1 / Fold change vs veh, LMF1 / RFU, IPO11 / Fold change vs veh, IPO11 / RFU, DFFB / Fold change vs veh, DFFB / RFU, FOXP1 / Fold change vs veh, FOXP1 / RFU, CARD8 / Fold change vs veh, CARD8 / RFU, STRN3 / Fold change vs veh, STRN3 / RFU, ADK / Fold change vs veh, ADK / RFU, RASSF2 / Fold change vs veh, RASSF2 / RFU, WIPF1 / Fold change vs veh, WIPF1 / RFU, LARP1B / Fold change vs veh, LARP1B / RFU, RASA1 / Fold change vs veh, RASA1 / RFU, RB1 / Fold change vs veh, RB1 / RFU, PPFIA1 / Fold change vs veh, PPFIA1 / RFU, MAT2A / Fold change vs veh, MAT2A / RFU, CCT5 / Fold change vs veh, CCT5 / RFU, WDR92 / Fold change vs veh, WDR92 / RFU, CUX1 / Fold change vs veh, CUX1 / RFU, TTC7A / Fold change vs veh, TTC7A / RFU, TMEM135 / Fold change vs veh, TMEM135 / RFU, DEPTOR / Fold change vs veh, DEPTOR / RFU, CPM / Fold change vs veh, CPM / RFU, DNAJB6 / Fold change vs veh, DNAJB6 / RFU, CACNA2D3 / Fold change vs veh, CACNA2D3 / RFU, DTX4 / Fold change vs veh, DTX4 / RFU, TFCP2 / Fold change vs veh, TFCP2 / RFU, GMCL1 /// GMCL1P1 / Fold change vs veh, GMCL1 /// GMCL1P1 / RFU, AEBP2 / Fold change vs veh, AEBP2 / RFU, SNHG1 /// SNORD22 /// SNORD25 /// SNORD26 /// SNORD27 /// SNORD28 /// SNORD29 /// SNORD31 / Fold change vs veh, SNHG1 /// SNORD22 /// SNORD25 /// SNORD26 /// SNORD27 /// SNORD28 /// SNORD29 /// SNORD31 / Fold change (Aza/veh), C12orf56 (ProbeSet 11735607_a_at) / Fold change (ACY-1035/veh), C12orf56 (ProbeSet 11735607_a_at) / Fold change (Aza/veh), FGFR1OP (ProbeSet 11751329_s_at) / Fold change (ACY-1035/veh), FGFR1OP (ProbeSet 11751329_s_at) / Fold change (Aza/veh), VPS36 (ProbeSet 11739960_a_at) / Fold change (ACY-1035/veh), VPS36 (ProbeSet 11739960_a_at) / RFU SYPL1 (11715823_x_at) / Fold change /veh SYPL1 (11715823_x_at) / RFU IGFBP7 (11715501_s_at) / Fold change /veh IGFBP7 (11715501_s_at) / RFU REEP3 (11722064_at) / Fold change /veh REEP3 (11722064_at) / RFU IGLL1 (11728026_x_at) / Fold change /veh IGLL1 (11728026_x_at): dose or concentration left out as unconfirmed
Details: ProbeSet 11730501_a_at; LIST D

Question: For `Nc1ncn([C@@H]2O[C@H](CO)[C@@H](O)[C@H]2O)c(=O)n1` [azacitidine], which “Fold change vs veh, CACNA2D3” value is on record?
Answer: Its value is 0.63.

Reference: publication PMC5218480 (PLoS ONE, 2017)
